Measurements as given in ChEMBL document CHEMBL1201862, “PubChem BioAssay data set” (2004).
The source made the active and inactive calls.

How the values were obtained:
[1] = target: G-protein coupled receptor 55 (Homo sapiens, UniProt Q9Y2T6); experiment: GPR55 agonists via beta-arrestin recruitment, primary screen, imaging, U2OS cells, beta-arrestin-GFP redistribution (AID 1961); format: functional
[2] = A cytotoxicity screen of small molecule inhibitors of the PhoP region in Salmonella typhi identified in the primary screen. [Related pubchem assays: 1850, 1864, 1985 ]; format: functional
Bcl-2-like protein 10 = Bcl-2-like protein 10 (Homo sapiens, UniProt Q9HD36); experiment: displacers of TR3 peptide from Bcl-B, primary screen, selectivity assay for Bfl-1 inhibitor project, biochemical, fluorescence polarization, FITC-TR3 peptide (AID 748);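 note: fluorescence polarization from a fluorescein-labelled TR3 peptide binding purified Bcl-B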
Estrogen receptor beta = Estrogen receptor beta (Homo sapiens, UniProt Q92731);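 note: recombinant ER-beta bound to coactivator SRC1 peptide in presence of estradiol agonist; inhibitors block coactivator peptide binding and lower the FRET signal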
Estrogen receptor = Estrogen receptor (Homo sapiens, UniProt P03372);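 note: potency for inhibiting coactivator peptide recruitment to the receptor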
Aminopeptidase N = target: T1, Aminopeptidase N (Plasmodium falciparum FcB1/Columbia, UniProt O96935); experiment: P. falciparum M1AAP inhibitors, biochemical, fluorogenic H-Leu-NHMec substrate, 1536-well (AID 1445); design: species or system Plasmodium falciparum 3D7, 3D7
T1 sequence (O96935 whole entry): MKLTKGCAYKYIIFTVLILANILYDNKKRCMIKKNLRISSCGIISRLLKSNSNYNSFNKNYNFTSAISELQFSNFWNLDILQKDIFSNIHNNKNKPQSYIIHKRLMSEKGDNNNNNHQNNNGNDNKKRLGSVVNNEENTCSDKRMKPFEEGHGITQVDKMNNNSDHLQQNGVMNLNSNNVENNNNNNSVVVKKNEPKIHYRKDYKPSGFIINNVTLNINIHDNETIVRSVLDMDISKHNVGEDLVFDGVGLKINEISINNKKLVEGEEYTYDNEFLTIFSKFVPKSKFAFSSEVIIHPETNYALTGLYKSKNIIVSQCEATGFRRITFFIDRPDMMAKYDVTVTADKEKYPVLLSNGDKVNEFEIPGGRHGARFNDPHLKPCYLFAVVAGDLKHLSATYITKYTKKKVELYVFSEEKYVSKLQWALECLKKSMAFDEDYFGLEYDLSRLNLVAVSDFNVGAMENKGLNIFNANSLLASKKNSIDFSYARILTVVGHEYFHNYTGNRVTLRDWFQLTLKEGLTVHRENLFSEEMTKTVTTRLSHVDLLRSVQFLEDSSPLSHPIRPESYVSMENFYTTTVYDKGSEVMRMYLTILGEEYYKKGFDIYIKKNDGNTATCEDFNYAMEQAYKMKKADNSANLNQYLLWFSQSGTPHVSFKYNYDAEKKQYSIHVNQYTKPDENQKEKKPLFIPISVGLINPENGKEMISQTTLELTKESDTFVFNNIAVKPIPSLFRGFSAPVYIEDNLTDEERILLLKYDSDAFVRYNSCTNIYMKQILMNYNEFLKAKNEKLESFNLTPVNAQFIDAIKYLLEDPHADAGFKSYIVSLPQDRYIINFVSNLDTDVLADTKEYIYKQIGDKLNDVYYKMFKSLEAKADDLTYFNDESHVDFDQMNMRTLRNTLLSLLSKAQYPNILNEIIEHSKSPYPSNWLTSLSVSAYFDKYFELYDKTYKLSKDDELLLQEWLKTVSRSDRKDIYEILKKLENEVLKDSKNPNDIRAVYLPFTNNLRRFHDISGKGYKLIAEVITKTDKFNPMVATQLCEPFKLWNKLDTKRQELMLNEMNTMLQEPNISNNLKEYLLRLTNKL

cells [3] = format: functional, cell-based
[4] = cytotoxicity in MIN6 insulinoma cells, dose response, cytotoxicity control, cell-based, mouse insulinoma (AID 2122); format: functional;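 note: confirmatory high-throughput counterscreen run to flag cytotoxic compounds; mouse MIN-6 beta cells carrying an insulin promoter eGFP reporter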
[5] = HeLa cell cytotoxicity, dose response, cytotoxicity control for MgcRacGAP inhibitor project (AID 624300); format: functional
[6] = target: Transitional endoplasmic reticulum ATPase (Homo sapiens, UniProt P55072, C522A); experiment: C522A mutant p97 ATPase inhibitors, dose response, counter-screen for p97 inhibitor project, biochemical, luminescence (AID 1544)
[7] = target: T2, Trace amine-associated receptor 1 (Homo sapiens, UniProt Q96RJ0); experiment: Fluorescence-based cell-based high throughput dose response assay to identify agonists of the human trace amine associated receptor 1 (TAAR1).; format: functional
T2 sequence (Q96RJ0 whole entry): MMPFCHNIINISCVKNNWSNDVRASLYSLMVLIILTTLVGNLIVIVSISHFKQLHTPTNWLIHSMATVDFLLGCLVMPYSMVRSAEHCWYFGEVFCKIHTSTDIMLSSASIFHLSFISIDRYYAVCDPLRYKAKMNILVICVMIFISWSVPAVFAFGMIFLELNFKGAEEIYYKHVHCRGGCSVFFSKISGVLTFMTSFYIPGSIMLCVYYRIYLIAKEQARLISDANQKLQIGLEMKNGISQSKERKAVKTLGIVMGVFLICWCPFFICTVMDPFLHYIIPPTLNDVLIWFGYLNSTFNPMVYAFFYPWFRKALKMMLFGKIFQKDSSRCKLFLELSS

[8] = insulin promoter down-regulators in MIN6 cells, imaging, high-content screening, mouse beta cells (AID 1628); format: functional
[9] = target: T3, Rac GTPase-activating protein 1 (Homo sapiens, UniProt Q9H0H5); experiment: MgcRacGAP GTPase-activating activity inhibitors, confirmation, biochemical, ADP Hunter fluorescence, primary and confirmatory (AID 624330); format: functional
T3 sequence (Q9H0H5 whole entry): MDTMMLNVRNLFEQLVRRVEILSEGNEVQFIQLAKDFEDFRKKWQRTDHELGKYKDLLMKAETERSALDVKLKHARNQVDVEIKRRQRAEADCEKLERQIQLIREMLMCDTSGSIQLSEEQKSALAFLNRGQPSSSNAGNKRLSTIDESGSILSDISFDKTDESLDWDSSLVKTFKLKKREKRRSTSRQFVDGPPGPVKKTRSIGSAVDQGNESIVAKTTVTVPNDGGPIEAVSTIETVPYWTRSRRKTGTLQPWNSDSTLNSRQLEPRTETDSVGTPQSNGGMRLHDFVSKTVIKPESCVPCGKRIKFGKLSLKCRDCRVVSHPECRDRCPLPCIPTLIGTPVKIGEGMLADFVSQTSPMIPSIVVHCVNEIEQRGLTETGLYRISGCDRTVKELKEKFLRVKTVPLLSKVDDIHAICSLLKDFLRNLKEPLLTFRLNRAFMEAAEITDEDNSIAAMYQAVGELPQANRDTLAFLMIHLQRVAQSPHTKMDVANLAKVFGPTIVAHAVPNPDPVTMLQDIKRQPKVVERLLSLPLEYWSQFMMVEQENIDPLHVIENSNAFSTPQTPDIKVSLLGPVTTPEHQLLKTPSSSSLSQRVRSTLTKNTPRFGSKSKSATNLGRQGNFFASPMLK

cells [10] = format: functional, cell-based; remark: listed apart in the source
[11] = NIH-3T3 fibroblast cytotoxicity, dose response, cytotoxicity control, cell-based, fluorescence, Alamar Blue, secondary assay (AID 2327); format: functional;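 note: NIH-3T3 mouse fibroblasts cultured with fluconazole at 8 µg/mL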
Caspase-6 = target: T4, Caspase-6 (Homo sapiens, UniProt P55212); experiment: human caspase-6 inhibitors, dose response, biochemical, VEID-R110 fluorescence, cherry-pick (AID 720632)
T4 sequence (P55212 whole entry): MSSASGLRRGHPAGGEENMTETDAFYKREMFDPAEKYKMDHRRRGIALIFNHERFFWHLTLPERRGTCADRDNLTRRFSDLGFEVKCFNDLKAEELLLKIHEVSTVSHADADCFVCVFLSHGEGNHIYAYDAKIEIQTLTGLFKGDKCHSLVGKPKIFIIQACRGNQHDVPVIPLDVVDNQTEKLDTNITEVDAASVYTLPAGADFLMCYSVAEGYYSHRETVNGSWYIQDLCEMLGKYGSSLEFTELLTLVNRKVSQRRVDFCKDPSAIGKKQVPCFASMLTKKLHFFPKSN

[12] = target: Transitional endoplasmic reticulum ATPase (Homo sapiens, UniProt P55072); experiment: p97 ATPase inhibitors, dose response, biochemical (AID 1534)
[13] = target: T2, Trace amine-associated receptor 1; experiment: Counterscreen for agonists of the human trace amine associated receptor 1 (hTAAR1): Fluorescence-based cell-based high throughput dose response assay to identify hTAAR1 agonist that also desensitize TAAR1 receptor response.; format: functional
[14] = target: Induced myeloid leukemia cell differentiation protein Mcl-1 (Homo sapiens, UniProt Q07820); format: functional
[15] = A High Throughput Confirmatory Assay used to Identify Novel Compounds that Inhibit Mycobacterium Tuberculosis in the absence of Glycerol.; format: functional
Trypsin = Trypsin (Sus scrofa, UniProt P00761); experiment: porcine trypsin inhibitors, dose response, selectivity assay for Rce1 protease inhibitor project, biochemical, quenched peptide fluorescence, cherry-pick (AID 488789)
[16] = target: Polyadenylate-binding protein 1 (Homo sapiens, UniProt P11940); experiment: PABP poly(A) RNA binding inhibitors, primary screen, biochemical, fluorescence polarization, uHTS (AID 2014)
[17] = target: DNA dC->dU-editing enzyme APOBEC-3G (Homo sapiens, UniProt Q9HC16); format: functional;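 note: Dose-response counterscreen measuring inhibition of APOBEC3G DNA deaminase activity, run while confirming APOBEC3A inhibitors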
[18] = target: DNA dC->dU-editing enzyme APOBEC-3A (Homo sapiens, UniProt P31941); experiment: Dose Response confirmation of small molecule APOBEC3A DNA Deaminase Inhibitors via a fluorescence-based single-stranded DNA deaminase assay. [Related pubchem assays (depositor defined):AID493011, AID493024]; format: functional
[19] = target: Eukaryotic translation initiation factor 4H (Homo sapiens, UniProt Q15056); experiment: human eIF4H binding inhibitors, primary screen, translation initiation inhibitor project, biochemical, uHTS, fluorescence polarization (AID 2012)

Sequence of Induced myeloid leukemia cell differentiation protein Mcl-1 (Q07820 whole entry): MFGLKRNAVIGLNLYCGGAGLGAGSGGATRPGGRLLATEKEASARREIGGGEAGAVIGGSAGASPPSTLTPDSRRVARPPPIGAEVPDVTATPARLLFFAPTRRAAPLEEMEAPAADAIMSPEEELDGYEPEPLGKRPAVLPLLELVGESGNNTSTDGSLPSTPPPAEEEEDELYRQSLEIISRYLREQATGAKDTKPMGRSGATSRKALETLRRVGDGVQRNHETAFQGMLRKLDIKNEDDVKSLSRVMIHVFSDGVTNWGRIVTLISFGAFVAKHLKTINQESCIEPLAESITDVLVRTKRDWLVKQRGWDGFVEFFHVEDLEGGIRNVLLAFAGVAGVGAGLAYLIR
Sequence of Bcl-2-like protein 10 (Q9HD36 whole entry): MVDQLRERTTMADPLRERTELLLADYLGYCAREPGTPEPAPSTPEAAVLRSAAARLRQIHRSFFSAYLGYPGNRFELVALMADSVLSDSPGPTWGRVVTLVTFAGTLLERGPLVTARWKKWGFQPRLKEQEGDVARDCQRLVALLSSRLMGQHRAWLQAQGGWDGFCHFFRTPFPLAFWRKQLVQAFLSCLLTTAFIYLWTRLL
Sequence of G-protein coupled receptor 55 (Q9Y2T6 whole entry): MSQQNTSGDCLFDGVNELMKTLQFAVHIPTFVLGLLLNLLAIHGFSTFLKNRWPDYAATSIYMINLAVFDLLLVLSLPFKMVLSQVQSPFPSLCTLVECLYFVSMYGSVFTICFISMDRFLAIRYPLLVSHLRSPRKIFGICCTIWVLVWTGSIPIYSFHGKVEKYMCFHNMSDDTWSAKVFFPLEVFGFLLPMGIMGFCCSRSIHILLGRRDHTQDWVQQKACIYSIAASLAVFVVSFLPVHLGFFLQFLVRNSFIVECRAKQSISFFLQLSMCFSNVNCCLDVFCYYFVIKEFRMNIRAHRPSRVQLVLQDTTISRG
Sequence of Estrogen receptor (P03372 whole entry): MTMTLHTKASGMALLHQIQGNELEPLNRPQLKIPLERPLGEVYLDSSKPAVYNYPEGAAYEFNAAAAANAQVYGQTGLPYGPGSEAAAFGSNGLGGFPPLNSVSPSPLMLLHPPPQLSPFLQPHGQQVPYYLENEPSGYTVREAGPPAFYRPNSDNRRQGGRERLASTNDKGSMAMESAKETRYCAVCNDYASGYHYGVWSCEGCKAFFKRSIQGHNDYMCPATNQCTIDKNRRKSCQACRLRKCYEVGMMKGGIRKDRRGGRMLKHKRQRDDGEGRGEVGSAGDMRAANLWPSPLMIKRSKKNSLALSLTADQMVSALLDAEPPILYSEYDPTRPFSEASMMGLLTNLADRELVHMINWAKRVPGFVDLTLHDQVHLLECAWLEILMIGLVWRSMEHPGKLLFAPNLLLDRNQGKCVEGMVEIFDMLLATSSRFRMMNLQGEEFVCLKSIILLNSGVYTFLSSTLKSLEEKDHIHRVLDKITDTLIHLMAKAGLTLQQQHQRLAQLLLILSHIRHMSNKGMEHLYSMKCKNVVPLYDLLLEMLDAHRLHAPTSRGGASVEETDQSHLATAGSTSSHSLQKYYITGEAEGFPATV
Sequence of Estrogen receptor beta (Q92731 whole entry): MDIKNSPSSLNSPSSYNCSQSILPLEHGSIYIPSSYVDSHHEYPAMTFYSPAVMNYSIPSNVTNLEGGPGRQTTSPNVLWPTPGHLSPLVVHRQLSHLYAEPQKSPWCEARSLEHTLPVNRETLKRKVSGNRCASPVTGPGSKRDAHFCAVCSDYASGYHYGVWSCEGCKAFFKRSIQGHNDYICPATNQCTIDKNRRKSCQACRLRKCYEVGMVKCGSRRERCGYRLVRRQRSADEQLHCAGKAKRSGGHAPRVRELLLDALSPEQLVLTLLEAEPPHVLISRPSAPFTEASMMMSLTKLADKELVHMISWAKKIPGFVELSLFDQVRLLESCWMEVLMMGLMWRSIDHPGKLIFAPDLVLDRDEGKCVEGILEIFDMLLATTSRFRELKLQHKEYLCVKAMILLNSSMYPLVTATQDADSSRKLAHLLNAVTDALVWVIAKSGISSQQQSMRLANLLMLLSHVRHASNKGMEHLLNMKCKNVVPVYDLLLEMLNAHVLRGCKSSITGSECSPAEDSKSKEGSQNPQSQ
Sequence of Transitional endoplasmic reticulum ATPase (Homo sapiens, UniProt P55072, C522A) (P55072 2-806 C522A limits assumed): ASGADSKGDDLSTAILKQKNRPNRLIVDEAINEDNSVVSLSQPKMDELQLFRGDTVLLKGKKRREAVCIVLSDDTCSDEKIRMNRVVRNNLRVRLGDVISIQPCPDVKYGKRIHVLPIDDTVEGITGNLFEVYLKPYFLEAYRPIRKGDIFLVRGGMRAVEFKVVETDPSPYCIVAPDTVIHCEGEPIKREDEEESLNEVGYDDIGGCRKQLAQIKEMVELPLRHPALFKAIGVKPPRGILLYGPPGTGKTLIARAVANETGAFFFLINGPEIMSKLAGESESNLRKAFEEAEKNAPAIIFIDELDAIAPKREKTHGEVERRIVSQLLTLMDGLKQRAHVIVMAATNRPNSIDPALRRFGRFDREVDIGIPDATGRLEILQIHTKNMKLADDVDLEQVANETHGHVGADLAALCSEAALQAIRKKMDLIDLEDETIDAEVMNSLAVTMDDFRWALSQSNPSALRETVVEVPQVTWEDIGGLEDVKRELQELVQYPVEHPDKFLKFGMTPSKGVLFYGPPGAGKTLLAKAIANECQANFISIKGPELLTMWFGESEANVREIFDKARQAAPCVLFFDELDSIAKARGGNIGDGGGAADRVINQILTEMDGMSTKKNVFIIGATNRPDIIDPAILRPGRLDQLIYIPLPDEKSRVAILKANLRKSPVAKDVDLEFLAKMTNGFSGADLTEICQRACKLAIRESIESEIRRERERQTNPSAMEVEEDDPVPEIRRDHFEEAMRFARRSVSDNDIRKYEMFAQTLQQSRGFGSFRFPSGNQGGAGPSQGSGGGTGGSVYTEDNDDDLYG
Sequence of Trypsin (P00761 whole entry): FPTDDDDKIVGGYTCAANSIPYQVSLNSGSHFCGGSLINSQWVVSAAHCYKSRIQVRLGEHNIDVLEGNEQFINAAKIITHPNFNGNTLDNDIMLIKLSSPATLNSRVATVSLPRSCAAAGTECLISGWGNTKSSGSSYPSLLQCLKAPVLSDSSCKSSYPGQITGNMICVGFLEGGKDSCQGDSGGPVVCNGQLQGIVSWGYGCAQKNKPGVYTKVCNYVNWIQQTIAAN
Sequence of DNA dC->dU-editing enzyme APOBEC-3G (Q9HC16 whole entry): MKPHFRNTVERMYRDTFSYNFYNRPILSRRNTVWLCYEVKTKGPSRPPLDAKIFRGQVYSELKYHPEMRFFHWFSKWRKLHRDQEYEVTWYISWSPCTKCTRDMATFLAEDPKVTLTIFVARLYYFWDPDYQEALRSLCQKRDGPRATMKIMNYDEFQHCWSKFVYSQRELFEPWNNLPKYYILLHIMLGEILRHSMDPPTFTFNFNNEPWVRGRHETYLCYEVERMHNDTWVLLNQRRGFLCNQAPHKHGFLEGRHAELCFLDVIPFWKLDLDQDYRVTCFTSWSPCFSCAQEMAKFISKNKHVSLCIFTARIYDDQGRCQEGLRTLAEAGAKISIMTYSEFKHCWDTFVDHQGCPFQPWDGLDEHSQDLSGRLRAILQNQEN
Sequence of Polyadenylate-binding protein 1 (P11940 whole entry): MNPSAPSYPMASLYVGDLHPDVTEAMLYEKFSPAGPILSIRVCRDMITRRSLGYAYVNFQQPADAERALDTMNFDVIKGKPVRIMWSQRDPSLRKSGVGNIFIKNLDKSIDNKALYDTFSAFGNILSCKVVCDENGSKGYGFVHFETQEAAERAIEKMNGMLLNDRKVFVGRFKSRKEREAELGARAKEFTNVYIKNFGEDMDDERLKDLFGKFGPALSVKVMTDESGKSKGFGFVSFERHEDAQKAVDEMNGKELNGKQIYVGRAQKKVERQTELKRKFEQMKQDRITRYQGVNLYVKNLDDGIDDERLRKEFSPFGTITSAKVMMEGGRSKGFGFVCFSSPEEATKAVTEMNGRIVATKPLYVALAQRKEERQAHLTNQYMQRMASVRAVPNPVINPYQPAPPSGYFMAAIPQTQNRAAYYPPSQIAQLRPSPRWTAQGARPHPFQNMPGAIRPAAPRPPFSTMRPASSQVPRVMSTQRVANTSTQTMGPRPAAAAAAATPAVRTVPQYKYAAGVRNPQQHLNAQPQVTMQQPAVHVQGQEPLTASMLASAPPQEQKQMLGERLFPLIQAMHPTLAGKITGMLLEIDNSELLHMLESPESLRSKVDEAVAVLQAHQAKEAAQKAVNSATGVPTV
Sequence of Transitional endoplasmic reticulum ATPase (Homo sapiens, UniProt P55072) (P55072 whole entry): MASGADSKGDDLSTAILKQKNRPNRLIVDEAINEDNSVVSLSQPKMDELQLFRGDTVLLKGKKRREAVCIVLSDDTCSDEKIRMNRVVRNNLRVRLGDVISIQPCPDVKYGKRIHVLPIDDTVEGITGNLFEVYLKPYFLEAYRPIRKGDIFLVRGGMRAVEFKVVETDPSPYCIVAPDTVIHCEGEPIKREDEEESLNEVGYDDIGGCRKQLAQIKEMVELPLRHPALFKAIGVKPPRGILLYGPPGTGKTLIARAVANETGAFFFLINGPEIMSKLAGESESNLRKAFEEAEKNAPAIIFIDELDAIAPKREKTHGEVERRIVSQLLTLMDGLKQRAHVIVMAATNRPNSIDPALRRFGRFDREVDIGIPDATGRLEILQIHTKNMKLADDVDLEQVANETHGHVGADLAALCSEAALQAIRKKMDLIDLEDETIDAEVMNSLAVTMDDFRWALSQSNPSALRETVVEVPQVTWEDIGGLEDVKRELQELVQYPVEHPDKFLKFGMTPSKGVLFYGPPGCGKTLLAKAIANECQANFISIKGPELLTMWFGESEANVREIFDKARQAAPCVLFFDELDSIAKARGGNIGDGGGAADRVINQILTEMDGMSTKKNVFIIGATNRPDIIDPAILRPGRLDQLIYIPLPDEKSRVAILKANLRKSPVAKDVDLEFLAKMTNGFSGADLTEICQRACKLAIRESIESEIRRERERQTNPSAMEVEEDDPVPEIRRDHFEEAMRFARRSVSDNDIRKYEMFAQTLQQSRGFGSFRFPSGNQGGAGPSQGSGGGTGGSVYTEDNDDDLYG

O=C(CSc1nc2ccccc2o1)N1c2ccccc2Sc2ccccc21
EC50 [1]: > 32 µM (inactive)

O=C(N/N=C/c1c(Cl)nc2ccccn2c1=O)c1cccnc1
EC50 [2]: > 50 µM (active)

O=C(Nc1ccccc1C(=O)O)c1ccccc1
IC50 (Bcl-2-like protein 10): > 100 µM (inactive) | IC50 (Estrogen receptor beta): > 50 µM (not active)

O=C1CC(c2ccco2)CC(O)=C1/C=N/c1cc(Cl)ccc1O (stereo not given)
IC50 (Estrogen receptor): 43.8 µM (not active) | IC50 (Aminopeptidase N): 5.58 µM (active)

Oc1ccc(/C=N/Nc2ccnc3cc(Cl)ccc23)cc1O
IC50 (cells [3]): > 29.9 µM (inactive) | IC50 [4]: 6.19 µM (active) | CC50 [5]: 43.5 µM (active) | IC50 [6]: > 50 µM (not active) | EC50 [7]: 0.498 µM (active) | IC50 [8]: 3.02 µM (active) | IC50 [9]: 30 µM (active) | EC50 (cells [10]): > 29.9 µM (inactive) | EC50 [11]: 7.32 µM (active) | AC50 (Caspase-6): 1.61 µM (active) | IC50 [12]: 36.5 µM (not active) | IC50 [13]: 2.47 µM (active) | IC50 [14]: 4.73 µM (active)

O=S1(=O)CCC(/N=C/c2ccc(-c3ccc(Cl)cc3)o2)C1 (stereo not given)
IC50 [15]: > 100 µM (active)

N=C(N)NC(=O)c1nc(Cl)c(N)nc1N
AC50 (Trypsin): 9.3 µM (active)

C[n+]1ccccc1/C=C1\Sc2ccccc2N1CCO
IC50 [16]: 2.22 µM (active) | IC50 [17]: 2.53 µM (active) | IC50 [18]: 1.08 µM (active) | IC50 [19]: > 100 µM (inactive)
